Some results are limits rather than exact numbers.

One test addresses T1, GPR17 (Homo sapiens, UniProt Q13304).
Test: not given
Particulars: WO 2005/103291; cited from earlier work.
Target sequence in this assay (Q13304 whole entry, species assumed): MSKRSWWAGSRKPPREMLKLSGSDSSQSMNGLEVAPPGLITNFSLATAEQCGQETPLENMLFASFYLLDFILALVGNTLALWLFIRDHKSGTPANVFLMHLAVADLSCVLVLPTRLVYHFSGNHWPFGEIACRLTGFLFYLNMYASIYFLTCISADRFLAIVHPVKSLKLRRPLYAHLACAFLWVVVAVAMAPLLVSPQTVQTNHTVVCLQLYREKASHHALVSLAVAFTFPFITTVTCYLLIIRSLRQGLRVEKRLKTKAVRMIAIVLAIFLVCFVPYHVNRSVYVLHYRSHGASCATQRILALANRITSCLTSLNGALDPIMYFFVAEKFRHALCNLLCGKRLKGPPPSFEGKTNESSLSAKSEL
With `NCC(=O)CCC(=O)O` [Example 5-ALA, 5 amino levulinic acid], the “amounts needed in the assays (GPR17 activation)” value is reported as “three digit micromolar range”.
With `NCc1[nH]cc(CCC(=O)O)c1CC(=O)O` [PBG, porphobilinogen], the “amounts needed in the assays (GPR17 activation)” value is on record as “mM range”.

A further test addresses T1, GPR17. Put plainly: Calcium mobilization functional assay (Ca2+ assay), inhibition of MDL29,951 response in CHO hGPR17. The test is classed as cell-based. Further details: host or cells: Flp-In T-REx CHO. Particulars: CHO hGPR17, 50 nM MDL29,951 agonist; read-out: Ca^2+ assay pIC50 (converted). How it is done: (§1) Flp-In T-REx CHO cells stably expressing human GPR17 receptor (CHO hGPR17) from Evi Kostenis' lab (Bonn University, Germany) were cultured at 37° C. in a humidified atmosphere of 5% CO2. Cells were grown in DMEM with Nutrient Mixture F-12 supplemented with hygromycin B (500 μg/ml) and blasticidin (30 μg/ml). Expression from the Flp-In locus was induced by treatment with doxycycline (1 μg/ml) for 16-20 h prior assays.
GPR17 is a G-protein coupled receptor. GPR17 activation triggers Gq-type G-protein signaling resulting in endoplasmic reticulum calcium (Ca^2+) stores release in cytosol which can be measured using Calcium 5 dye, a fluorescent indicator dye of cytosolic Ca^2+ levels. The compounds of the present invention were assessed either in the Ca^2+ assay or in the GPR17 cAMP assay, described further below.
CHO hGPR17 were defrosted and seeded at a density of 20,000 cells per well into black 384-well plates with clear bottom. Cells were incubated overnight at 37° C. in a humidified atmosphere of 5% CO2. […] Fluorescent signal relative to cytosolic Ca^2+ concentration was recorded over time at room temperature in FLIPR Tetra reader. […] Inhibitory effects of varying concentrations test compounds were measured and resulting pIC50s were determined. […]
(Calcium flux is commonly read through the fluorescence of an indicator in the cells.)
Target sequence in this assay (Q13304 29-367 limits assumed): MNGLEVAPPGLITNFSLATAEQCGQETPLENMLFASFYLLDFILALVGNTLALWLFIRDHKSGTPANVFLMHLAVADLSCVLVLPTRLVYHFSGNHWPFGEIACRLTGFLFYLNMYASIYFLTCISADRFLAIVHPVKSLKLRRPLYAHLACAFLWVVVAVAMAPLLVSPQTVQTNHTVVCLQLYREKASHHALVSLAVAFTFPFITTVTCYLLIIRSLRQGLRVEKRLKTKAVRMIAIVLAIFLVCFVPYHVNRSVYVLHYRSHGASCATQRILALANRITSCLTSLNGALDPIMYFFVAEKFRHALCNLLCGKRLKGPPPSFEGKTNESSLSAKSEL
Regarding `Cn1cc(S(=O)(=O)Nc2ccc(C#N)cc2F)c2ccc(Cl)cc21` [Example I-1, 6-chloro-N-(4-cyano-2-fluorophenyl)-1-methylindole-3-sulfonamide], the IC50 is 31.6 to 316 nM.
On the same count and under the same terms, the value for `COc1nc(NS(=O)(=O)c2cn(C)c3cc(Cl)ccc23)c(F)cc1Cl` [Example I-2, 6-chloro-N-(5-chloro-3-fluoro-6-methoxypyridin-2-yl)-1-methylindole-3-sulfonamide] was 31.6 to 316 nM.

A further test deals with T1, GPR17. Put plainly: cAMP accumulation functional assay (HTRF), Schild analysis against MDL29,951 in CHO hGPR17. The test is classed as cell-based. Also noted: host or cells: Flp-In T-REx CHO. Particulars: CHO hGPR17, Schild analysis vs MDL29,951, 5 μM forskolin; read-out: cAMP assay pA2 (converted). How it is done: as §1
GPR17 activation can also recruit Gi-type G-protein signaling, resulting in a decrease of intracellular cyclic adenosine monophosphate (cAMP). Intracellular cAMP changes can be measured using the HTRF cAMP dynamic assay kit from CisBio (Codolet, France). Using homogenous time-resolved fluorescence technology (HTRF), the assay is based on competition between native cAMP produced by cells and cAMP labelled with the dye d2. The tracer binding was determined by an anti-cAMP antibody labeled with cryptate.
CHO hGPR17 were detached with PBS containing EDTA and dispatched in black 384-well plates with 5,000 cells per well. Cells were first incubated for 30 minutes at room temperature in HBSS Hepes (pH 7.4) containing vehicle or varying concentrations of test GPR17 antagonist/inverse agonist compounds. Then, a dose response curve of MDL29,951 GPR17 agonist (typically from 10^−5M to 10^−10M) was added on vehicle and on each test GPR17 antagonist/inverse agonist compound concentration in a final volume of 20 μL HBSS Hepes buffer (pH 7.4) containing 1% DMSO, 5 μM forskolin and 0.1 mM IBMX. After 60 minutes incubation at room temperature, the reaction is terminated and the cells lysed by adding the d2 detection reagent and the cryptate reagent in 10 μL lysis buffer each according to manufacturer's instructions. After 60 minutes incubation, changes in cAMP concentrations are measured according to manufacturer's instructions using an Envision plate reader with laser excitation. All incubations were performed in duplicate. Data was analyzed using GraphPad Prism software using the 4-parameter logistic equation to measure MDL29,951 pEC50s in absence and presence of GPR17 antagonist/inverse agonist test compounds. Dose ratio (DR) were plotted against antagonist concentrations and Schild analysis provided estimated affinity pA2 of GPR17 antagonist/inverse agonist test compounds.
The activities of the Example compounds tested are depicted in the table below. The activity ranges A, B and C refer to pA2 values in the cAMP assay as follows: “A”: pA2 6.5≤x<7.5, “B”: pA2 7.5≤x<8.5, “C”: 8.5≤pA2.
In general terms: Changes in cAMP serve as a functional read-out for many G protein-coupled receptors.
Target sequence in this assay (Q13304 29-367 limits assumed): as above
Regarding `O=S(=O)(Nc1cc(F)c(Br)cc1F)c1cn(CCO)c2nc(Cl)ccc12` [Example I-30, N-(4-bromo-2,5-difluorophenyl)-6-chloro-1-(2-hydroxyethyl)pyrrolo[2,3-b]pyridine-3-sulfonamide], the Kb is 3.16 to 31.6 nM.
As to `COc1nc(Cl)c(F)cc1NS(=O)(=O)c1cn(C)c2cc(Cl)ccc12` [Example I-31, 6-chloro-N-(6-chloro-5-fluoro-2-methoxypyridin-3-yl)-1-methylindole-3-sulfonamide], the Kb was 3.16 to 31.6 nM.
Same read-out and setting: the value for `COc1nc(Cl)c(F)cc1NS(=O)(=O)c1cn(CC(F)F)c2cc(Cl)ccc12` [Example I-32, 6-chloro-N-(6-chloro-5-fluoro-2-methoxypyridin-3-yl)-1-(2,2-difluoroethyl)indole-3-sulfonamide] was 3.16 to 31.6 nM; that for `COc1nc(Cl)c(F)cc1NS(=O)(=O)c1cn(CC(O)CF)c2cc(Cl)ccc12` (centres unmarked) [Example I-33, 6-chloro-N-(6-chloro-5-fluoro-2-methoxypyridin-3-yl)-1-(3-fluoro-2-hydroxypropyl)indole-3-sulfonamide] was not above 3.16 nM.
Regarding `COc1nc(Cl)c(F)cc1NS(=O)(=O)c1cn(CC(O)CO)c2cc(Cl)ccc12` (centres unmarked) [Example I-34, 6-chloro-N-(6-chloro-5-fluoro-2-methoxypyridin-3-yl)-1-(2,3-dihydroxypropyl)indole-3-sulfonamide], the Kb is 3.16 to 31.6 nM.
Same read-out and setting: the value for `COc1nc(OC(F)F)c(F)cc1NS(=O)(=O)c1cn(CCO)c2nc(Cl)ccc12` [Example I-35, 6-chloro-N-[6-(difluoromethoxy)-5-fluoro-2-methoxypyridin-3-yl]-1-(2-hydroxyethyl)pyrrolo[2,3-b]pyridine-3-sulfonamide] was not above 3.16 nM; that for `[N-]=[N+]=NCCn1cc(S(=O)(=O)Nc2cc(F)c(Br)cc2F)c2ccc(Cl)cc21` [Example I-36, 1-(2-azidoethyl)-N-(4-bromo-2,5-difluorophenyl)-6-chloroindole-3-sulfonamide] was 31.6 to 316 nM.

Source of the values: patent US12358875B2, “N-(phenyl)-indole-3-sulfonamide derivatives and related compounds as GPR17 modulators for treating CNS disorders such as multiple sclerosis” (UCB Pharma GMBH, priority 2019, dated 2025).
